Experimental data reported in US6423325B1, “Skin care composition” (Conopco, Inc., priority 1999, dated 2002).
“And” between values parts separate entries of the source, which are not always exact repeats. Identical values can stand only once.

Tested on: procollagen-I synthesis in human dermal fibroblasts
Test: Dot blot assay for procollagen-I protein in dermal fibroblast conditioned medium
Type: cell-based
Settings: 24 hours, primary human foreskin fibroblasts, relative to vehicle treated control value of 100
Protocol: Primary human foreskin fibroblasts at passage 2 (P2) were seeded into 12-well plates at 10000 cells/cm^2 and maintained for 24 hours in an atmosphere of 5% carbon dioxide and 4% oxygen in Dulbeccos Modified Eagles Medium (DMEM) supplemented with 10% foetal calf serum. After this time the cells were washed with serum free DMEM and then incubated in fresh serum free DMEM for a further 60 hours. The fibroblast monolayers were then washed again with serum free DMEM. Test reagents and vehicle controls were added to the cells in triplicate in a final volume of 0.4 ml/well fresh serum free DMEM and incubated for a further 24 hours.
This fibroblast conditioned medium was either analysed immediately or snap frozen in liquid nitrogen and stored at −70° C. for future analysis. The cells were then counted and data from the dot-blot analysis subsequently standardised to cell number.
Samples of conditioned medium from dermal fibroblasts treated with vehicle (as a control) or test reagents were supplemented with 20 mM dithiothreitol (1:10 dilution of 200 mM stock solution) and 0.1% sodium dodecylsulphate (1:100 dilution of 10% stock solution), mixed well and then incubated at 75° C. for 2 minutes.
A standard for the assay was generated by serial dilution of neat fibroblast conditioned medium from fibroblasts seeded at 10000 cells/cm^2 in a 175 cm^2 flask and maintained in serum free DMEM as described above. Assay samples were subsequently applied in triplicate to a prewetted sheet of Immobilon-P transfer membrane using the 96-well Bio-Dot Apparatus from Bio-Rad as described in the manufacturers guidelines. Approximately 200 μl of medium was applied per well. The medium was allowed to filter through the membrane under gravity (30 minutes) after which the membrane was washed twice with PBS (200 μl). These PBS washes were allowed to filter through the membrane under gravity (2×15 minutes).
The Bio-Dot apparatus was then attached to a vacuum manifold and a third and final PBS wash carried out under suction. The apparatus was disassembled, the membrane removed and quickly cut as required before being placed in blocking buffer overnight at 4° C. Membranes prepared for procollagen-I analysis were blocked with 5% (w/v) non-fat dried milk powder/0.05% Tween 20 in PBS. The following day, the membranes were probed with 1:10000 dilution of primary antibodies to human procollagen-I (MAB1912; rat monoclonal; Chemicon Int. Inc., Temecula, Calif.) for 2 hours at room temperature. The membranes were subsequently washed with TBS/0.05% Tween 20 (3×5 minutes) and then incubated with 1:1000 dilution of ^125I-conjugated anti-rat fragments (Amersham) as required for 1 hour at room temperature. Following this the Immobilon strips were again washed with TBS/Tween 20 (3×5 minutes) before being allowed to dry in air at room temperature.
The dried membranes were wrapped in cellophane and exposed to a Molecular Dynamics storage phosphor screen for 16-18 hours. […] Dot intensity was assessed by computer-assisted image analysis using the quantification tools in ImageQuant™, standardised to cell number and the effects of various test reagents procollagen-I synthesis were determined relative to a vehicle treated control value of 100 arbitrary units.
In order to normalise the results the effects of the test substances were determined relative to a vehicle treated control value of 100 arbitrary units. […]

| Compound | Procollagen-I (10 μM) | Procollagen-I (1 μM) [arbitrary units] |
| --- | --- | --- |
| CC/C=C\C/C=C\C/C=C\C/C=C\C/C=C\C/C=C\CCC(=O)O [DHA, Docosahexaenoic acid] | 105.1 arbitrary units |  |
| CCCCCCCCCCC/C=C\CCCCC(=O)O [PA, Petroselinic acid] |  | 87.6 |
| CCCCC/C=C\C/C=C\CCCCCCCC(=O)O [linoleic acid] | 111.8 arbitrary units and 110.3 arbitrary units | 99.3 |
| CCCCCCCC/C=C\CCCCCCCC(=O)O [oleic acid, reference compound] | 102.6 arbitrary units |  |
